Our source for the IC50, EC50 and inhibition values is ChEMBL document CHEMBL4627385, “Cytotoxic Monoterpenoid Indole Alkaloids from Tabernaemontana corymbosa as Potent Autophagy Inhibitors by the Attenuation of Lysosomal Acidification” (J Nat Prod, 2020).

Type in all cases: functional, cell-based
Test [1] has as its system A549. The test can be described thus: Cytotoxicity against human A549 cells assessed as reduction in cell viability incubated for 48hrs by MTT assay. The settings on record: A549, 48 h.
For test [2], the system named is HeLa. As to the kind of experiment: Inhibition of lysosomal acidification in human HeLa cells incubated for 3 hrs by LysoTracker Red DND-99 staining based array scan method.
The subject of test [3] is SW480. The test can be described thus: Cytotoxicity against human SW480 cells assessed as reduction in cell viability incubated for 48hrs by MTT assay. The note with it: SW480, 48 h. In general terms: Tetrazolium assays rely on reduction of a dye to a coloured formazan, in cell work by metabolically active cells.
Test [4] deals with MCF7. The test can be described thus: Cytotoxicity against human MCF7 cells assessed as reduction in cell viability incubated for 48hrs by MTT assay. The settings on record: MCF7, 48 h.
Test [5] relates to SMMC-7721. As to the kind of experiment: Cytotoxicity against human SMMC7721 cells assessed as reduction in cell viability incubated for 48hrs by MTT assay. The note with it: SMMC-7721, 48 h.
Test [6] deals with HL-60. As to the kind of experiment: Cytotoxicity against human HL60 cells assessed as reduction in cell viability incubated for 48hrs by MTT assay. The settings on record: HL-60, 48 h.
Test [7] deals with HeLa. The test can be described thus: Inhibition of autophagic flux in human HeLa cells harboring GFP-LC3 assessed as increase in LC3 dot accumulation incubated for 12 hrs by confocal microscopic method.
The test system of test [8] is HeLa. As to the kind of experiment: Inhibition of autophagic flux in human HeLa cells assessed as increase in LC3-2 to LC3-1 ratio at 20 uM in presence of Bafilomycin A1 by Western blot analysis. For orientation: A western blot detects proteins with antibodies after separation by electrophoresis.
Test [9] relates to HeLa. As to the kind of experiment: Inhibition of autophagic flux in human HeLa cells assessed as increase in LC3-2 to LC3-1 ratio at 20 uM by Western blot analysis.
In test [10] the test system is HeLa. As to the kind of experiment: Inhibition of autophagic flux in human HeLa cells assessed as p62 protein expression at 20 uM by Western blot analysis.
The subject of test [11] is HeLa. The test can be described thus: Inhibition of autophagic flux in human HeLa cells assessed as p62 protein expression at 50 nM by Western blot analysis.
The subject of test [12] is HeLa. The test can be described thus: Inhibition of autophagic flux in human HeLa cells assessed as increase in LC3-2 accumulation at 50 nM by Western blot analysis.
The test system of test [13] is HeLa. As to the kind of experiment: Inhibition of autophagic flux in human HeLa cells assessed as inhibition of lysosomal acidification at 50 nM by Western blot analysis.
Test [14] has as its system HeLa. As to the kind of experiment: Inhibition of autophagic flux in human HeLa cells assessed as increase in LC3-2 to LC3-1 ratio at 50 nM by Western blot analysis.

The structures appear in SMILES notation. pEC50, pIC50: −log10 of the molar value. The source made the active and inactive calls. The rule behind the calls is not given here.

The term pIC50 denotes −log10 of the IC50, conventionally taken in molar units. As a reminder, the pEC50 is the EC50 on a negative log10 scale, so that one unit is a factor of ten. `C/C=C1/CN(C)[C@H]2Cc3c([nH]c4ccccc34)[C@H](c3c(OC)ccc4c5c([nH]c34)[C@]3(C(=O)OC)C[C@H]4C[C@H](CC)[C@@H]3N(C4)C[C@H]5OC)C[C@H]1[C@]2(CO)C(=O)OC`: the pIC50 in [1], in test [3], in [4], in test [5] and in test [6] was less than 5.00 throughout. Moreover, in test [2], the pEC50 was less than 4.40.
In the case of `CC[C@H]1C[C@H]2CN3CCc4c([nH]c5cc(OC)c([C@@H]6C[C@H]7[C@@]8(C(=O)OC)CO[C@H](N(C)[C@H]8Cc8c6[nH]c6ccccc86)[C@@]76O[C@H]6C)cc45)[C@](C(=O)OC)(C2)[C@H]13`, the inhibition result in [7], in [8], in test [9] and in [10] was “Active” each time. The pIC50 in test [1] was greater than 5.00; in test [3], less than 5.00; in test [4], greater than 5.00; in [5], greater than 5.00; in test [6], greater than 5.00. In addition, in test [2], the pEC50 is 4.69. In addition, the inhibition entry in test [2] was “Dose-dependent effect”.
Take `C/C=C1/CN(C)[C@H]2Cc3c([nH]c4ccccc34)[C@H](c3cc4c(cc3OC)N=C3[C@]5(C(=O)OC)C[C@]6(C(=O)OC)C[C@H](CC)[C@@H]5N(CC[C@@]34O)C6)C[C@H]1[C@]2(CO)C(=O)OC`: in [2], the pEC50 is 4.59 and the inhibition entry is “Dose-dependent effect”.
On to `C/C=C1/CN2COC[C@]3(C(=O)OC)[C@@H]1C[C@@H](c1c(OC)ccc4c5c([nH]c14)[C@]1(C(=O)OC)C[C@H]4C[C@H](CC)[C@@H]1N(CC5)C4=O)c1[nH]c4ccccc4c1C[C@H]23`, for which the pIC50 in [1], in test [3], in test [4], in test [5] and in test [6] was less than 5.00 each time. In addition, the pEC50 in [2] was less than 4.40.
Regarding `C/C=C1/CN2COC[C@]3(C(=O)OC)[C@@H]1C[C@@H](c1c(OC)ccc4c1N=C1[C@]5(C(=O)OC)C[C@@H]6C[C@H](CC)[C@@H]5N(CC[C@]14O)C6)c1[nH]c4ccccc4c1C[C@H]23`, the pEC50 in [2] is less than 4.40.
`COC(=O)C[C@@H]1[C@@H]2C[C@H]([C@H](C)O)[C@@H]3N1CCc1c([nH]c4ccc(OC)cc14)[C@]3(C(=O)OC)C2`: the pIC50 in test [1], in test [3], in test [4], in test [5] and in [6] was less than 5.00 each time. The same molecule showed a pEC50 in test [2] of less than 4.40.
In test [2], `C/C=C1/CN2COC[C@@]3(C(=O)OC)[C@@H]1C[C@@H](c1c(OC)ccc4c5c([nH]c14)[C@]1(C(=O)OC)C[C@@H]4C[C@H](CC)[C@@H]1N(CC5)C4)c1[nH]c4ccccc4c1C[C@H]23` gave a pEC50 of less than 4.40.
`CC[C@H]1C[C@@H]2CN3CCc4c([nH]c5ccccc45)[C@](C(=O)OC)(C2)[C@H]13` [CORONARIDINE] showed a pEC50 in test [2] of less than 4.40.
For the molecule `CC[C@H]1C[C@H]2C[N@]3CCc4c([nH]c5ccc(OC)cc45)[C@](C(=O)OC)(C2)[C@H]13`, the pEC50 in test [2] was less than 4.40.
As for `C/C=C1/CN2COC[C@@]3(C(=O)OC)[C@@H]1C[C@H](c1cc4c5c([nH]c4cc1OC)[C@]1(C(=O)OC)C[C@@H]4C[C@H](CC)[C@@H]1N(CC5)C4)c1[nH]c4ccccc4c1C[C@H]23`, the pIC50 in [1] was 5.07; in [3], 5.46; in [4] it was 5.40; in [5] it was 5.33; in [6], 5.49. This molecule also showed a pEC50 in test [2] of 4.53. Also, in test [2], the inhibition entry is “Dose-dependent effect”.
`COC(=O)C[C@@H]1[C@@H]2C[C@H]([C@H](C)O)[C@@H]3N1CCc1c([nH]c4cc(OC)ccc14)[C@]3(C(=O)OC)C2`: the pIC50 in [1], in test [3], in test [4], in [5] and in test [6] was less than 5.00 each time. In [2], the pEC50 was less than 4.40.
For the molecule `COC(=O)[C@@]12C[C@@H]3C[C@@H]([C@H](C)O)C1[N@@](CCc1c2[nH]c2ccccc12)C3`, the pEC50 in test [2] was less than 4.40.
The same measure, in the same setting: the value for `C/C=C1/CN(C)[C@H]2Cc3c([nH]c4ccccc34)[C@H](c3c(OC)ccc4c3N=C3[C@]5(C(=O)OC)C[C@@H]6C[C@H](CC)[C@@H]5N(CC[C@]34O)C6)C[C@H]1[C@]2(CO)C(=O)OC` was less than 4.40.
In the case of `CO/C1=C\C(C)=C\[C@@H](C)[C@@H](O)[C@@H](C)C/C(C)=C/C=C/[C@H](OC)[C@@H]([C@@H](C)[C@@H](O)[C@H](C)[C@@]2(O)C[C@@H](O)[C@H](C)[C@@H](C(C)C)O2)OC1=O`, the inhibition result in [11], in [12], in test [13] and in test [14] was “Active” throughout.
As for `COC(=O)[C@@]12CC3C[C@H]([C@H](C)O)[C@@H]1N(C3)Cn1c2c(C=O)c2ccccc21`, the pIC50 in [1], in [3], in test [4], in test [5] and in test [6] was less than 5.00 throughout. The molecule further had a pEC50 in test [2] of less than 4.40.
Regarding `C/C=C1/CN(C)[C@H]2Cc3c([nH]c4ccccc34)[C@H](c3c(OC)ccc4c3N[C@]3(OC)[C@]5(C(=O)OC)C[C@H]6C[C@H](CC)[C@@H]5N5CC[C@@]43O[C@H]65)C[C@H]1[C@]2(CO)C(=O)OC`, the pIC50 in test [1], in [3], in test [4], in [5] and in [6] was less than 5.00 throughout. In [2], this molecule had a pEC50 of less than 4.40.
In [2], `CCN(CC)CCCC(C)Nc1ccnc2cc(Cl)ccc12` (stereo not drawn) [CHLOROQUINE] had a pEC50 of 4.71.
Turning to `COC(=O)[C@@]12C[C@@H]3CC([C@H](C)O)[C@@H]1[N@@](CC[C@]1(O)C2=Nc2ccccc21)C3` (stereo partly drawn), in [2], the pEC50 was less than 4.40.
Turning to `CC[C@H]1C[C@@H]2CN3CCc4c([nH]c5cc(OC)c([C@@H]6C[C@H]7C(C(=O)OC)[C@H](Cc8c6[nH]c6ccccc86)N(C)C[C@H]7CC)cc45)[C@](C(=O)OC)(C2)[C@H]13` (stereo partly drawn), in [2], the pEC50 was 4.80 and the inhibition entry is “Dose-dependent effect”.
For the molecule `CC[C@H]1C[C@H]2C[C@@]3(C(=O)OC)c4[nH]c5ccccc5c4CC[N@@](C2CC(C)=O)[C@@H]13` (stereo partly drawn), the pEC50 in test [2] is less than 4.40.
Still for that read-out and setting: the value for `COC(=O)[C@@]12C[C@@H]3CC([C@H](C)O)[C@@H]1[N@@](CC[C@]1(O)C2=Nc2ccc(OC)cc21)C3` (stereo partly drawn) was less than 4.40; that for `COC(=O)[C@@]12C[C@@H]3C[C@H]([C@H](C)O)C1[N@@](CCc1c2[nH]c2ccccc12)C3` was less than 4.40.
With `CC[C@H]1C[C@]2(C(=O)OC)CN3CC[C@@]4(O)C(=Nc5cc(OC)c([C@@H]6C[C@H]7[C@@]8(C(=O)OC)CO[C@H](N(C)[C@H]8Cc8c6[nH]c6ccccc86)[C@@]76O[C@H]6C)cc54)[C@](C(=O)OC)(C2)[C@H]13`, the inhibition entry in test [7], in test [8], in test [9] and in test [10] was “Active” throughout. The same molecule showed a pEC50 in [2] of 4.89. The inhibition entry in test [2] is “Dose-dependent effect”.
Take `C/C=C1/CN(C)[C@H]2Cc3c([nH]c4ccccc34)[C@H](OC)C[C@H]1[C@]2(CO)C(=O)OC`: the pIC50 in [1], in test [3], in [4], in [5] and in test [6] was less than 5.00 each time. This molecule had a pEC50 in test [2] of less than 4.40.
`CC[C@H]1C[C@H]2CN3CC[C@@]4(O)C(=Nc5cc(OC)ccc54)[C@](C(=O)OC)(C2)[C@H]13`: the pIC50 in [1] is less than 5.00; in [3], 5.12; in test [4] it was less than 5.00; in test [5] it was less than 5.00; in [6] it was less than 5.00. Moreover, in test [2], the pEC50 is less than 4.40.
As for `CC[C@H]1C[C@@H]2CN3CCc4c([nH]c5cc(OC)ccc45)[C@](C(=O)OC)(C2)[C@H]13` [ISOVOACANGINE], the negative-log EC50 (pEC50) in [2] is less than 4.40.
In turn, `CC[C@H]1C[C@H]2C[C@@]3(C(=O)OC)c4[nH]c5cc(OC)ccc5c4CC[N@@](C2CC(C)=O)[C@@H]13` (stereo partly drawn) gave a pEC50 in test [2] of less than 4.40.
